# Measurements published in patent US20060264406A1, “Mono-lysine salts of azole compounds” (Eisai Co., Ltd., priority 2005, published 2006).
# Where a name gives a salt, the structure may show the parent alone.
# Assays:
# Assay type in all cases: physicochemical
# [1] = moisture uptake (weight change versus relative humidity); settings: 60% RH
# From the text: Weight change (y-axis) versus relative humidity (x-axis) is shown, wherein adsorption is shown by -∘-, and desorption by -∘-.
# For instance, Comparative Example 1 has about 10% change in weight at 60% RH (FIG. 1), whereas Example 1 has about 2-2.5% change in weight at the same humidity level (FIG. 2). On average, the mono-lysine salt or solvate thereof has better stability over the bis-lysine form (FIG. 4).
# [2] = aqueous solubility of the salts and solvates; settings: water
# Protocol: The obtained solvate of the mono-lysine salt of ((2R,3R)-3-(4-(4-cyanophenyl)thiazol-2-yl)-2-(2,4-difluorophenyl)-1-(1H-1,2,4-triazol-1-yl)butan-2-yloxy)methyl dihydrogen phosphate is scaled up and fully characterized. Physical-chemical properties including solubility, stability, moisture uptake, compaction, etc., are evaluated and compared to the bis-lysine salt of Comparative Example 1.
# Also, Example 1 retains a high aqueous solubility (>200 mg/mL) similar to that of the bis-lysine salt of Comparative Example 1.
# [3] = physical stability under stressed storage conditions (area percent); settings: for degradation on storage: 2-week stability data
structure (smiles),measurement,setting,value
"C[C@@H](c1nc(-c2ccc(C#N)cc2)cs1)[C@@](Cn1cncn1)(OCOP(=O)(O)O)c1ccc(F)cc1F.NCCCC[C@H](N)C(=O)O.NCCCC[C@H](N)C(=O)O [Comparative Example 1, Bis-lysine salt of (2R,3R)-3-[4-(4-cyanophenyl)thiazol-2-yl]-2-(2,4-difluorophenyl)-1-(1H-1,2,4-triazol-1-yl)-2-[(dihydrogenphosphonoxy)methoxy]butane, reference compound]",change in weight (moisture uptake),[1],about 10%
same,change in weight (moisture uptake),[1]; listed as bis-lysine monoethanolate,10%
"CC(C)O.C[C@@H](c1nc(-c2ccc(C#N)cc2)cs1)[C@@](Cn1cncn1)(OCOP(=O)(O)O)c1ccc(F)cc1F.NCCCC[C@H](N)C(=O)O [Example 5, ((2R,3R)-3-(4-(4-cyanophenyl)thiazol-2-yl)-2-(2,4-difluorophenyl)-1-(1H-1,2,4-triazol-1-yl)butan-2-yloxy)methyl dihydrogen phosphate mono-lysine salt isopropyl alcohol solvate]",weight change for adsorption,[1],< 0.5%
"C[C@@H](c1nc(-c2ccc(C#N)cc2)cs1)[C@@](Cn1cncn1)(OCOP(=O)(O)O)c1ccc(F)cc1F [Example 1, ((2R,3R)-3-(4-(4-cyanophenyl)thiazol-2-yl)-2-(2,4-difluorophenyl)-1-(1H-1,2,4-triazol-1-yl)butan-2-yloxy)methyl dihydrogen phosphate mono-lysine salt ethanol solvate]",Solubility,[2],>200 mg/mL
same,solubility,[2],> 200 mg/mL
same,change in weight (moisture uptake),[1],2-2.5%
same,weight change for adsorption,[1],< 2.5%
same,weight change for desorption,[1],< 5%
same,change in weight (moisture uptake),[1]; listed as mono-lysine monoethanolate,2-3%
same,degradation on storage,[3]; 40° C./75% RH (open and closed),minimal degradation
same,degradation on storage,[3]; any other storage conditions,No degradation
same,Area Percent (AP as phosphonoxoxymethyl ether derivative of ravuconazole),"[3]; 5° C., 1 Week",98.47 Area Percent
same,Area Percent (AP as phosphonoxoxymethyl ether derivative of ravuconazole),"[3]; 5° C., 2 Weeks",99.60 Area Percent
same,Area Percent (AP as phosphonoxoxymethyl ether derivative of ravuconazole),"[3]; 5° C., 5 Days",99.59 Area Percent
same,Area Percent (AP as phosphonoxoxymethyl ether derivative of ravuconazole),"[3]; 25° C./60% RH (Closed), 1 Week",99.66 Area Percent
same,Area Percent (AP as phosphonoxoxymethyl ether derivative of ravuconazole),"[3]; 25° C./60% RH (Closed), 2 Weeks",99.21 Area Percent
same,Area Percent (AP as phosphonoxoxymethyl ether derivative of ravuconazole),"[3]; 25° C./60% RH (Closed), 5 Days",99.59 Area Percent
same,Area Percent (AP as phosphonoxoxymethyl ether derivative of ravuconazole),"[3]; 25° C./60% RH (Open), 1 Week",99.65 Area Percent
same,Area Percent (AP as phosphonoxoxymethyl ether derivative of ravuconazole),"[3]; 25° C./60% RH (Open), 2 Weeks",99.42 Area Percent
same,Area Percent (AP as phosphonoxoxymethyl ether derivative of ravuconazole),"[3]; 25° C./60% RH (Open), 5 Days",99.61 Area Percent
same,Area Percent (AP as phosphonoxoxymethyl ether derivative of ravuconazole),"[3]; 40° C./75% RH (Closed), 1 Week",99.05 Area Percent
same,Area Percent (AP as phosphonoxoxymethyl ether derivative of ravuconazole),"[3]; 40° C./75% RH (Closed), 2 Weeks",97.90 Area Percent
same,Area Percent (AP as phosphonoxoxymethyl ether derivative of ravuconazole),"[3]; 40° C./75% RH (Closed), 5 Days",99.20 Area Percent
same,Area Percent (AP as phosphonoxoxymethyl ether derivative of ravuconazole),"[3]; 40° C./75% RH (Open), 1 Week",98.76 Area Percent
same,Area Percent (AP as phosphonoxoxymethyl ether derivative of ravuconazole),"[3]; 40° C./75% RH (Open), 2 Weeks",96.90 Area Percent
same,Area Percent (AP as phosphonoxoxymethyl ether derivative of ravuconazole),"[3]; 40° C./75% RH (Open), 5 Days",98.97 Area Percent
same,Area Percent (AP as phosphonoxoxymethyl ether derivative of ravuconazole),"[3]; 60° C., 1 Week",99.70 Area Percent
same,Area Percent (AP as phosphonoxoxymethyl ether derivative of ravuconazole),"[3]; 60° C., 2 Weeks",99.73 Area Percent
same,Area Percent (AP as phosphonoxoxymethyl ether derivative of ravuconazole),"[3]; 60° C., 5 Days",99.70 Area Percent
same,Area Percent (AP as phosphonoxoxymethyl ether derivative of ravuconazole),"[3]; HIL/UV (Controlled), 1 Week",99.64 Area Percent
same,Area Percent (AP as phosphonoxoxymethyl ether derivative of ravuconazole),"[3]; HIL/UV (Controlled), 2 Weeks",99.68 Area Percent
same,Area Percent (AP as phosphonoxoxymethyl ether derivative of ravuconazole),"[3]; HIL/UV (Controlled), 5 Days",99.60 Area Percent
same,Area Percent (AP as phosphonoxoxymethyl ether derivative of ravuconazole),"[3]; HIL/UV (Exposed), 1 Week",98.68 Area Percent
same,Area Percent (AP as phosphonoxoxymethyl ether derivative of ravuconazole),"[3]; HIL/UV (Exposed), 2 Weeks",99.68 Area Percent
same,Area Percent (AP as phosphonoxoxymethyl ether derivative of ravuconazole),"[3]; HIL/UV (Exposed), 5 Days",99.61 Area Percent
same,Area Percent (AP as phosphonoxoxymethyl ether derivative of ravuconazole),[3]; Initial,99.56 Area Percent
